# Data published in article PMC7155171, “Probing the Open Global Health Chemical Diversity Library for Multistage-Active Starting Points for Next-Generation Antimalarials” (ACS Infectious Diseases, 2020).
# Where two headings read alike, the source gives them in different places.
# Key:
# [1] = tested on: P. falciparum Dd2 (PfLuc) line expressing firefly luciferase, asexual blood stage; assay: microbe, parasite or virus in culture; assay type: cell-based, Plasmodium falciparum; details: Plasmodium falciparum
# P. falciparum Dd2 = assay: SYBR green I asexual blood stage proliferation assay (96 h); assay type: cell-based, Plasmodium falciparum; details: for IC50 / Emax: Plasmodium falciparum
# [2] = DD2, read-out: CDD P. falciparum Luciferase ABS 11-pt Reconfirmation Dose Response (48hr): IC50 (μM), 11-pt dose response, 48hr
# [3] = DD2, 8-pt dose response, 96hr, read-out: CDD P. falciparum Luciferase ABS 8-pt Reconfirmation Dose Response (96hr): IC50
# [4] = DD2, 8-pt dose response, 96hr, read-out: CDD P. falciparum Luciferase ABS 8-pt Reconfirmation Dose Response (96hr): Maximum inhibition (%)
# [5] = DD2, 11-pt dose response, 48hr, read-out: CDD P. falciparum Luciferase ABS 11-pt Reconfirmation Dose Response (48hr): Maximum inhibition (%)
# [6] = DD2, 11-pt dose response, 96hr, read-out: CDD P. falciparum Luciferase ABS 11-pt Reconfirmation Dose Response (96hr): IC50
# [7] = DD2, 11-pt dose response, 96hr, read-out: CDD P. falciparum Luciferase ABS 11-pt Reconfirmation Dose Response (96hr): Maximum inhibition (%)
# [8] = DD2, Sybr Green I, 11-pt dose response, 96hr, read-out: CDD P. falciparum Sybr Green I ABS 11-pt Reconfirmation Dose Response (96hr): IC50
# [9] = DD2, Sybr Green I, 11-pt dose response, 96hr, read-out: CDD P. falciparum Sybr Green I ABS 11-pt Reconfirmation Dose Response (96hr): Maximum inhibition (%)
# [10] = DD2, read-out: P. falciparum Luciferase ABS 11-pt Reconfirmation Dose Response (48hr): IC50, 11-pt dose response, 48hr
# [11] = DD2, 8-pt dose response, 96hr, read-out: P. falciparum Luciferase ABS 8-pt Reconfirmation Dose Response (96hr): IC50
# [12] = DD2, 11-pt dose response, 48hr, read-out: P. falciparum Luciferase ABS 11-pt Reconfirmation Dose Response (48hr): Maximum inhibition (%)
# [13] = DD2, 11-pt dose response, 96hr, read-out: P. falciparum Luciferase ABS 11-pt Reconfirmation Dose Response (96hr): IC50
# [14] = DD2, 11-pt dose response, 96hr, read-out: P. falciparum Luciferase ABS 11-pt Reconfirmation Dose Response (96hr): Maximum inhibition (%)
# [15] = DD2, 11-pt dose response, 96hr, read-out: P. falciparum Sybr Green I ABS 11-pt Reconfirmation Dose Response (96hr): IC50
# [16] = DD2, 11-pt dose response, 96hr, read-out: P. falciparum Sybr Green I ABS 11-pt Reconfirmation Dose Response (96hr): Maximum inhibition (%)
# [17] = DD2, 8-pt dose response, 96hr, read-out: P. falciparum Luciferase ABS 8-pt Reconfirmation Dose Response (96hr): Maximum inhibition (%)
Structure (SMILES),"IC50 [1, 2]","IC50 [1, 3]","Emax [1, 4]","Emax [1, 5]","IC50 [1, 6]","Emax [1, 7]",IC50 (P. falciparum Dd2; [8]),Emax (P. falciparum Dd2; [9]),also measured
Oc1ccc(Cl)cc1CNCc1cccc(C(F)(F)F)c1 [DDD01038245],> 4.16 µM,0.82 µM,91.9%,64%,10.6 µM,79.2%,3030 nM,95.3%,–
Cc1ccccc1CNCc1cc(Cl)ccc1O [DDD01038246],11 µM,0.64 µM,92.4%,69.3%,5.6 µM,89.5%,2600 nM,97.5%,–
COc1cccc(CNCc2ccccc2Cl)c1O [DDD01038247],7.91 µM,0.9 µM,89.5%,79.1%,1.97 µM,96.2%,5220 nM,87.5%,–
COc1cccc(CNCc2cccc(Cl)c2)c1O [DDD01038248],4.63 µM,0.99 µM,92.4%,87.8%,1.9 µM,98%,2690 nM,92.1%,–
COc1cccc(CNCc2ccc(F)cc2Cl)c1O [DDD01038249],> 4.16 µM,0.94 µM,87.2%,36%,2.78 µM,95.4%,> 4160 nM,92.8%,–
COc1cccc(CNCc2ccc(F)c(Cl)c2)c1O [DDD01038250],3.18 µM,0.56 µM,93.8%,93.8%,1.4 µM,99.2%,1970 nM,98.2%,–
Cc1cccc(NC(=O)c2cccc(OCc3nnnn3C)c2)n1 [DDD01038630],0.916 µM,0.34 µM,94.9%,99.2%,> 0.462 µM,99.5%,2540 nM,99.2%,–
CN[C@@H]1CCC[C@@H](Oc2ccccc2Oc2ccc(C)cc2)[C@@H]1O [DDD01056673],1.83 µM,0.52 µM,96%,97%,0.625 µM,99.7%,2330 nM,99.2%,–
"c1cnc(N2CCC(c3csc(Nc4cnccn4)n3)CC2)nc1 [DDD01056714, C1CN(CCC1c1csc(Nc2cnccn2)n1)c1ncccn1]",–,–,–,–,–,–,–,–,"IC50 ([1]; DD2, read-out: CDD P. falciparum Luc 11pt dose response (96hr, n=2): IC50 (μM), 96hr, 11-point, n=2): 0.0286 µM; IC50 ([1]; DD2, read-out: CDD P. falciparum Luciferase 11pt dose response (48hr, n=2): IC50 (μM), 48hr, 11-point, n=2): 0.0592 µM; Emax ([1]; DD2, 48hr, 11-point, read-out: CDD P. falciparum Luciferase ABS 11-pt Reconfirmation Dose Response (48hr): Maximum inhibition (%)): 82.6%; Emax ([1]; DD2, 96hr, 11-point, read-out: CDD P. falciparum Luciferase ABS 11-pt Reconfirmation Dose Response (96hr): Maximum inhibition (%)): 94.8%; CDD P. falciparum Sybr Green I ABS Dd2 Dose Response: Maximum measured (%) (P. falciparum Dd2; Dd2, 96 h): 55.9%; IC50 (P. falciparum Dd2; DD2, 96 h, read-out: CDD P. falciparum Sybr Green I ABS Dd2 Dose Response: IC50): > 4160 nM"
CCC(C)(C)n1nnnc1C(c1cccs1)N1CCc2ccccc2C1 (centres unmarked) [DDD01056726],3.18 µM,0.56 µM,91.1%,71.7%,0.803 µM,93.7%,4960 nM,79.3%,–
Cc1cccc(C)c1Nc1noc2c1CN(C(=O)c1ccnn1C)CC2 [DDD01056796],0.425 µM,0.14 µM,96.7%,98.3%,0.328 µM,101%,266 nM,96.3%,–
Cc1cccc(C)c1Nc1noc2c1CN(C(=O)c1cn(C)cn1)CC2 [DDD01056797],0.494 µM,0.23 µM,95.7%,99.4%,0.535 µM,101%,220 nM,97.2%,–
Cc1cccc(C)c1Nc1noc2c1CN(C(=O)c1c[nH]nc1C)CC2 [DDD01056871],1.9 µM,0.77 µM,–,87.7%,1.38 µM,96.9%,2520 nM,–,–
Cc1ccc(CN(CCN(C)C)Cc2c(C)nc3sccn23)o1 [DDD01056924],–,–,–,–,–,–,–,–,"IC50 [1, 10]: > 12.5 µM; IC50 [1, 11]: 1.82 µM; Emax [1, 12]: 65.3%; IC50 [1, 13]: 2.43 µM; Emax [1, 14]: 88.8%; IC50 (P. falciparum Dd2; [15]): > 4160 nM; Emax (P. falciparum Dd2; [16]): 52.1%"
Cc1cccc(C)c1Nc1noc2c1CN(C(=O)c1ccn(C)n1)CC2 [DDD01057030],0.885 µM,0.26 µM,96.3%,97.1%,0.693 µM,99.6%,913 nM,95.5%,–
CCCNc1cc(-c2c[nH]nc2C2CCN(C(=O)C3CCC3)C2)ccn1 (centres unmarked) [DDD01057089],4.01 µM,0.31 µM,96.1%,86.1%,1.63 µM,97.9%,1340 nM,61.5%,–
NC1CCc2nc(-c3cccnc3)nc(Nc3ccc(F)cc3)c2C1 (centres unmarked) [DDD01057099],3.56 µM,0.24 µM,96.1%,98.4%,0.99 µM,100%,1310 nM,100%,–
Fc1ccccc1Cn1c(C2CCNCC2)cc2cccnc21 [DDD01057236],3.02 µM,0.41 µM,92.4%,64.7%,1.41 µM,–,7030 nM,70.6%,–
COc1ccccc1C1(NCc2c(C)nc3c(C)cccn23)CCCC1 [DDD01057239],4.35 µM,0.71 µM,–,60.6%,1.55 µM,92%,> 1390 nM,68.9%,–
CC(C)Nc1cc(-c2c[nH]nc2C2CCN(C(=O)C3CC3)C2)ccn1 (centres unmarked) [DDD01057305],5.35 µM,0.29 µM,95.7%,–,1.73 µM,98.4%,8070 nM,76.9%,–
CC(C)CNc1cc(-c2c[nH]nc2C2CCN(C(=O)C3CC3)C2)ccn1 (centres unmarked) [DDD01057306],5.71 µM,0.28 µM,95.6%,–,1.93 µM,96.6%,5020 nM,50.9%,–
CC(C)Nc1cc(-c2c[nH]nc2C2CCN(C(=O)C3CCC3)C2)ccn1 (centres unmarked) [DDD01057307],4.05 µM,0.23 µM,94.3%,–,1.42 µM,95.8%,7490 nM,72%,–
COc1cc(C(=O)NCC2(N(C)C)CCN(C)CC2)c2ccccc2n1 [DDD01057375],–,–,–,–,–,–,–,–,"IC50 [1, 10]: > 12.5 µM; IC50 [1, 11]: < 0.00232 µM; Emax [1, 17]: 88.6%; Emax [1, 12]: 53%; Emax [1, 14]: 87.3%; IC50 ([1]; 96 h incubation, Dd2 luciferase, read-out: 96 hour Pfluc IC50): 0.00714 µM; IC50 (P. falciparum Dd2; [15]): > 1390 nM; Emax (P. falciparum Dd2; [16]): 63.6%"
Fc1cccc(F)c1Cn1c(C2CCNCC2)cc2cccnc21 [DDD01057378],1.51 µM,0.36 µM,91.4%,76%,0.733 µM,92.1%,570 nM,68.3%,–
Nc1cc(-c2c[nH]nc2C2CCCN2CCCc2ccccc2)ccn1 (centres unmarked) [DDD01057437],3.06 µM,0.59 µM,96.2%,63%,0.669 µM,100%,2260 nM,96.1%,–
Cc1nc(-c2ccc(F)c(F)c2)cc(C2CCNCC2)n1 [DDD01058356],> 12.5 µM,0.84 µM,88.2%,44.3%,2.02 µM,86.7%,2100 nM,68.9%,–
OC1(c2ccc(F)cc2)CCN(Cc2ccccc2N2CCCC2)CC1 [DDD01058479],–,–,–,–,–,–,–,–,"IC50 [1, 10]: 3.24 µM; IC50 [1, 11]: 1.38 µM; Emax [1, 17]: 88.9%; Emax [1, 12]: 76.5%; IC50 [1, 13]: 1.95 µM; Emax [1, 14]: 94.3%; IC50 (P. falciparum Dd2; [15]): 5910 nM; Emax (P. falciparum Dd2; [16]): 82.4%"
